A word on the IC50: it is the point on the concentration scale where inhibition reaches its midpoint. By melting point is commonly meant the temperature of the solid-liquid transition.

For series [1], the system named is rhabdomyosarcoma (RD) cells. Description: Assay for inhibition of cell proliferation (MTT), rhabdomyosarcoma cells. Type of series: cell-based, human. The settings on record: for IC50: Homo sapiens, rhabdomyosarcoma (RD) cells, MTT, 96 h incubation; for RD Ratio (paclitaxel/compound): ratio of paclitaxel IC50 to compound IC50, RD cells. The method, then:
(§1) Human rabdomyosarcoma (RD) and mouse neuroblastoma (N1E115) cell lines were obtained from the American Type Culture Collection (ATCC, Rockville, Md.). The RD cells were grown in Dulbecco's modified eagle medium (DMEM) supplemented with 4 mM glutamine, containing 10% fetal bovine serum (ATCC #30-2020) and supplemented with 1% penicillin and 1% streptomycin. When confluent, the cells were maintained by passage (about once per week) until needed. The N1E115 line was also cultured in DMEM with 4 mM glutamine containing 10% newborn calf serum (Gibco, Grand Island, N.Y.) and likewise maintained.
(§2) The proliferation of rhabdomyosarcoma cells was determined using a cell proliferation assay kit based on the formation of insoluble formazan crystals from 3-(4,5-dimethylthiazol-2-yl)-2,5-diphenyltetrazolium bromide (MTT). The rhabdomyosarcoma cells were cultured to a density of 10^5 cells per mL. The cell culture (100 μL) was dispensed into wells of a 96-well plate to 10^4 cells per well. The plate was incubated at 37° C. for 3 h until the cells firmly attached to the well surfaces.
(§3) A second 96-well round bottom plate was made up containing the test compounds, serially diluted to cover the concentration range of interest using the DMEM medium plus antibiotics. The final concentration of DMSO in which the compounds were initially dissolved was maintained at a constant 0.5% in each well and the volume of the compounds in the plate was 220 μL. Following the 3 h incubation the medium was removed from the plate containing the cells and replaced with 200 μL of the solutions containing the compounds. The cells were incubated for a further 96 h before the assessment of growth inhibition using MTT.
(§4) The cells were left bathing in 100 μL of the saline solution to which was added 100 μL of MTT in saline (12 mM). Incubation was continued for 4 h at 37° C. to produce the blue formazan color which was quantified by optical density measurements at 570 nm. Background correction of all test wells was performed by subtraction of the yellow MTT solution color measured at 570 nm in cell-free wells. The data were normalized to solvent only control wells.

The subject of series [2] is neuroblastoma (N1E115) cells. Description: Assay for inhibition of cell proliferation (MTT), neuroblastoma cells. Type of series: cell-based, mouse. The settings on record: for IC50: Mus musculus, N1E-115, neuroblastoma (N1E115) cells, MTT; for N1E115 Ratio (paclitaxel/compound): ratio of paclitaxel IC50 to compound IC50, N1E115 cells. The protocol:
as §1, §2, §3, §4

As for `CC(C)Cn1c(-c2ccc(F)cc2Cl)c(Cl)nc(-n2cccn2)c1=O` [Compound 53, 5-Chloro-6-(2-chloro-4-fluorophenyl)-1-(2-methylpropyl)-3-(1H-pyrazol-1-yl)-2(1H)-pyrazinone], the melting point lay within 137 to 139 °C. Besides, in series [1], the midpoint of inhibition, the IC50, lay at 0.23 µM and the “RD Ratio (paclitaxel/compound)” value was 0.07. For the same molecule, in series [2], the 50% inhibitory concentration (IC50) turned out to be 0.7 µM and the “N1E115 Ratio (paclitaxel/compound)” value worked out at 0.13.

`CC(C)Cn1c(-c2c(F)cccc2F)c(Cl)nc(-c2cn(C)cn2)c1=O` [Compound 85, 5-Chloro-6-(2,6-difluorophenyl)-1-(2-methylpropyl)-3-(1-methyl-1H-imidazol-4-yl)-2(1H)-pyrazinone] yielded a melting point of 191 to 193 °C.

Consider `Cc1nc(-n2cccn2)c(=O)n(CC(C)C)c1-c1c(F)cccc1F` [Compound 149, 5-Methyl-6-(2,6-difluorophenyl)-1-(2-methylpropyl)-3-(1H-pyrazol-1-yl)-2(1H)-pyrazinone], for which the melting point lay in the range of 105 to 106 °C.

`CC[C@H](C)Cn1c(-c2c(F)cc(F)cc2F)c(Cl)nc(-n2cccn2)c1=O` [Compound 155, 5-Chloro-1-[(2S)-2-methylbutyl)-3-(1H-pyrazol-1-yl)-6-(2,4,6-trifluorophenyl)-2(1H)-pyrazinone]: the melting point was 112 to 113 °C. In series [1], the half-inhibitory concentration (IC50) amounted to 0.02 µM and the “RD Ratio (paclitaxel/compound)” value stood at 0.85. In series [2], the IC50 came to 0.075 µM and the “N1E115 Ratio (paclitaxel/compound)” value amounted to 1.17.

In turn, `COc1ccc(Cn2c(-c3c(F)cccc3F)c(Cl)nc(-n3cccn3)c2=O)cc1` [Compound 271, 5-Chloro-6-(2,6-difluorophenyl)-1-[(4-methoxyphenyl)methyl]-3-(1H-pyrazol-1-yl)-2(1H)-pyrazinone] gave a melting point of 235 to 236 °C.

`CC(C)Cn1c(-c2c(F)cccc2F)cnc(-n2cccn2)c1=O` [Compound 342, 6-(2,6-Difluorophenyl)-1-(2-methylpropyl)-3-(1H-pyrazol-1-yl)-2(1H)-pyrazinone] had a melting point of 91 to 92 °C.

As for `O=c1c(-n2cccn2)nc(Cl)c(-c2c(F)cc(F)cc2F)n1CC(F)(F)C(F)(F)F` [Compound 468, 5-Chloro-1-(2,2,3,3,3-pentafluoropropyl)-3-(1H-pyrazol-1-yl)-6-(2,4,6-trifluorophenyl)-2(1H)-pyrazinone], the melting point fell in the range of 147 to 149 °C.

The molecule `CCC(C)Cn1c(-c2ccc(F)cc2F)c(C)nc(C#N)c1=N` (stereo not shown) [Compound 471, 5-(2,4-Difluorophenyl)-3,4-dihydro-3-imino-6-methyl-4-(2-methylbutyl)pyrazinecarbonitrile] returned a melting point of 73 to 77 °C.

These data come from patent publication US20090186907A1, “Pyrazinones As Cellular Proliferation Inhibitors” (E.I. DuPont De Nemours and Company, priority 2006, published 2009).
